# Results as given in patent US6113907A, “Pharmaceutical grade St. John's Wort” (priority 1997, dated 2000).
# Where two headings read alike, the source gives them in different places.
# How the values were obtained:
# [1] = mice; cited from earlier work
# [2] = tested on: Receptor tyrosine kinase of epidermal growth factor; conditions: cited from earlier work
# [3] = tested on: equine infectious anemia virus; conditions: cited from earlier work
# murine cytomegalovirus = conditions: cited from earlier work
# Sindbis virus = conditions: cited from earlier work
# serotonin transporter = molecular target: T1, serotonin transporter (Rattus norvegicus, UniProt P31652); assay: serotonin transporter assay, [125I]-RTI-121, rat cerebral cortical membranes; assay type: binding
# T1 construct: Cerebral cortical membranes derived from male Wistar rats; from tissue; host or cells: cerebral cortical membranes of male Wistar rats
# protein kinase C = conditions: cited from earlier work
# MAO = conditions: cited from earlier work
# adenosine receptor = adenosine receptor non-selective (ADNS), [3H] NECA, bovine striatal membranes; assay type: binding
# Procedure: To determine the inhibitory activity of the substances for the dopamine receptor (dp) the following assay was preformed. A partial receptor preparation was prepared from bovine striatal membranes using [^3 H] spiperone as the ligand at a final concentration of 0.3 nM. To determine non-specific binding cold spiperone was tested at 1 μM. The reactions were carried out in 50 mM Tris-HCl (pH 7.7) containing 120 mM NaCl, 5 mM KCl, 2 mM CaCl2 and 1 mM MgCl2 at 37° C. for 60 minutes. […] The inhibitory properties of the substances for binding of ligand to the adenosine receptor (ADNS) was measured using a partially purified receptor preparation made from bovine striatal membranes. The radioligand used was [^3 H] 5'-N-ethylcarboxyamidoadenosine (NECA) at a final ligand concentration of 4 nM. Non-specific binding was determined in the presence of 10 μM NECA. The reactions were carried out in 50 mM Tris-HCL (pH 7.7) for 60 minutes at 25° C. […] To measure the inhibitory activity of the substances for the opiate receptor (Opiate) receptor was partially purified from rat forebrains. [^3 H] naloxone at 1 nM as the ligand used. Non-specific binding was determined in the presence of 1 μM of naloxone. The assays were carried out in 50 mM Tris-HCl (pH 7.4) at 25° C. for 90 minutes. […] The neuronal nicotinic receptor (Nicotinic Neuronal) was assayed using receptors partially purified from rat cortical membranes. The radioligand used was [^3 H] N-methylcarbamylcholine iodide at a final ligand concentration of 5 nM. Non-specific binding was determined in the presence of 1 μM nicotine sulfate. The assay reactions were carried out in 50 mM Tris-HCl (pH 7.4) containing 120 mM NaCl, 5 mM KCl, 2 mM CaCl2, 1 mM MgCl2, and 3 μM atropine sulfate at 4° C. for 60 minutes. […] To determine how the substances inhibit the corticotropin releasing factor (CRF) partially purified receptor from rat cortical membranes was used as the receptor preparation. […] Tyr-° CRF at a final ligand concentration of 0.1 nM. Non-specific binding was determined in the presence of 1 μM Tyr-° CRF. The reactions were carried out in 50 mM HEPES containing 10 mM MgCl2, 2 mM EGTA, 0.12 TIU/ml aprotinin and 0.3% BSA at 25° C. for 120 minutes. The reaction is terminated by centrifugation in a Sorvall centrifuge for 15 minutes at 4° C.
# [4] = tested on: muscarinic receptor for the central nervous system; assay: muscarinic receptor for the central nervous system (M1 Central), [3H] QNB, rat cortical membranes; assay type: binding; conditions: 10^-4; 100 µM
# Procedure: Fourteen additional bioassays were preformed on either extracts, fractions or reference compounds for this botanical. To measure inhibition of [^3 H] PK11195 to the benzodiazepine receptor (BDZ) a partially purified receptor preparation was made from rat kidney membranes. The final radioactive ligand concentration was 1 nM and non-specific binding was measured using 200 nM cold PK11195. The substances, receptor and ligand were reacted in 50 mM Tris-HCL (pH 7.7) at 0-4° C. for 60 minutes. The reaction was terminated by rapid filtration of the samples through glass fiber filters. […] The inhibition of [^3 H] pinrenzepine to the muscarinic M1 receptor (M1) by the substances was measured using a partially purified receptor from bovine striatal membranes. The final hot ligand concentration was 1 nM and non-specific binding was determined in the presence of 100 nM atropine. […] The reactions were terminated by rapid vacuum filtration of the reaction mixture through glass fiber filters. […] To assay for biological activity for the muscarinic receptor for the central nervous system, receptor was partially purified from rat cortical membranes. […] Non-specific binding was determined in the presence of 100 nM atropine. […] Non-specific binding was determined using 1 mM NMDA. […] Non-specific binding was determined using 100 μM AMPA.
# NMDA = assay: Receptor Binding by Hypericin, NMDA
# Procedure: Through an NIMH screening contract (NovaScreen™, Baltimore, Md.) a commercially available crude extract from the fresh flowers and buds of Hypericum perforatum [1:1.5; hydro-alcohol (40:60) made from flowering tops; Herb Pharm] containing ~0.1% hypericin was dried under vacuum, dissolved in 4% DMSO, and diluted to an initial concentration of 50 mg/ml for in vitro screening in a battery of 39 receptor assays and two enzyme systems (Table 5, below).
# T1 sequence (P31652 whole entry): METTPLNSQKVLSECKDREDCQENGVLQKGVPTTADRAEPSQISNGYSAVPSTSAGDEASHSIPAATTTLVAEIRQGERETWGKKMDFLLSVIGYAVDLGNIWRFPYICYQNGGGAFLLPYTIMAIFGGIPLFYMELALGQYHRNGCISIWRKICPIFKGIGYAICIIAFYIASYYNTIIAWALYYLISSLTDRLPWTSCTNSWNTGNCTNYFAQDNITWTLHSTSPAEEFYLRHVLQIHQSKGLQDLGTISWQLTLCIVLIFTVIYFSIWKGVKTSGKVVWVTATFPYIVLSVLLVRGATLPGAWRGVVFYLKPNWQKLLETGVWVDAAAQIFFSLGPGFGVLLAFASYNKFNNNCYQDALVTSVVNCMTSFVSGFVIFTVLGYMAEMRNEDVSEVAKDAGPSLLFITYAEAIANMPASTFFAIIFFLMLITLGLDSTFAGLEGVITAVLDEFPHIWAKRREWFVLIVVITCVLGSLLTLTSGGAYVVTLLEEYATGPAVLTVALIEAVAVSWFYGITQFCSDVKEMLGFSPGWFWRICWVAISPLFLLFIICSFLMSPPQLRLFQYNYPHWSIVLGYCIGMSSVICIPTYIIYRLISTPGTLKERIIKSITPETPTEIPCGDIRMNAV
smiles,measurement,setting,value
"Cc1cc(O)c2c(=O)c3c(O)cc(O)c4c5c(O)cc(O)c6c(=O)c7c(O)cc(C)c8c1c2c(c34)c(c78)c65 [Hypericin, hypericin]",antiviral activity in vivo,[1],show antiviral activity in vivo (mice)
same,receptor tyrosine kinase activity of epidermal growth factor,[2],inhibited
same,activity against equine infectious anemia virus,[3],Activity has also been reported
same,activity against murine cytomegalovirus,murine cytomegalovirus,Activity has also been reported
same,activity against Sindbis virus,Sindbis virus,Activity has also been reported
same,inhibition at 100 µM,"serotonin transporter; 10^-4, read-out: Sero",51%
same,inhibition at 100 µM,"serotonin transporter; 10^-4 M, read-out: Sero % inhibition (PharmaPrint range)",51 ± 2%
same,IC50,serotonin transporter; read-out: Sero (concentration),4000 nM
same,protein kinase C IC50,protein kinase C,1.7 µg/mL
same,concentration inhibiting MAO,"MAO; Suzuki et al., 80% purity",50 µg/mL
same,confirmation of MAO inhibition,MAO,failed to confirm this effect
same,ADNS,"adenosine receptor; 10^-4, 60 min, 100 µM",70%
same,"AD,NS % inhibition (PharmaPrint range)",adenosine receptor; 10^-4 M,70 ± 20%
same,M1 Central,[4],55%
same,% Inhibition NMDA,NMDA; 1 μM,48.5%
same,% Inhibition NMDA,NMDA; 10 μM,81.7%
same,% Inhibition NMDA,NMDA; 100 μM,-20.7%
same,% Inhibition NMDA,NMDA; .001 μM,10.5%
same,% Inhibition NMDA,NMDA; .01 μM,24.5%
same,% Inhibition NMDA,NMDA; .1 μM,-0.3%
same,Ki,NMDA; read-out: Ki NMDA,~1000 nM
same,Ki,NMDA; read-out: ~Ki NMDA (Table 7),~1100 nM
